Reference: publication PMC10855164, “Ligand-Based Design of Selective Peptidomimetic uPA and TMPRSS2 Inhibitors with Arg Bioisosteres” (International Journal of Molecular Sciences, 2024)

Experiments:
[1] = target: T1, matriptase (Homo sapiens, UniProt Q9Y5Y6); assay: fluorometric enzyme inhibition assay, matriptase (Boc-Leu-Arg-Arg-AMC); assay type: biochemical; conditions: quotient Ki matriptase / Ki TMPRSS2, from cited Ki values (ref 29)
T1 construct: catalytic domain of matriptase (uniport: Q9Y5Y6 aa 596–855); hexa-histidine (N); made in house; host or cells: Escherichia coli BL21 Gold (DE3)
T1 sequence (Q9Y5Y6 596-855): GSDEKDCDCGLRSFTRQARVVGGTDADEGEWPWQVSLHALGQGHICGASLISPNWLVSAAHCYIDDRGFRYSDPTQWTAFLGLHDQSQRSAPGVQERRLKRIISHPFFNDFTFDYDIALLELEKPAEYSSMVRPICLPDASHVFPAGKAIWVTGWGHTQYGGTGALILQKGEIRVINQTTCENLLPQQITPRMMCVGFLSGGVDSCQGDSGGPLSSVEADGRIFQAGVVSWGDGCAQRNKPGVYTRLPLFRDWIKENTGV
Method: (§1) The inhibitory activity of the synthesized compounds towards the respective main- and off-target proteases was measured via fluorometric and colorimetric assays. Thus, fluorogenic AMC- or colorimetric pNA-based substrates with a peptide sequence suitable for the tested protease were utilized (see Supplementary Figure S2). At first, the compounds were screened against […] proteases (uPA, TMPRSS2, matriptase, tPA, thrombin, factor Xa) at 20 µM, and a cut-off value of 80% inhibition at this concentration was set, for the differentiation between nonactive (n.a.) and active inhibitors. Due to the reversible inhibition mechanism of the ketobenzothiazole derivates, the IC50 values were determined with Graphpad Prism 9, and afterwards converted to the corresponding Ki values for an adequate comparison between the inhibitory activities of the compounds toward all tested proteases. The Ki values were calculated using the Cheng–Prusoff equation [43].
(§2) Fluorometric inhibition assays
(§3) The inhibitory activities of the compounds against the proteases were determined by enzyme inhibition assays with fluorogenic or colorimetry-based substrates. The fluorescence, caused by cleaved AMC from the fluorogenic substrates (uPA, matriptase, TMPRSS2, thrombin), was measured in white flat-bottom 96-well plates from Greiner Bio-One using a Tecan Infinite F200 Pro plate reader. The absorption, caused by cleaved pNA from colorimetric substrates (factor Xa and tPA), was measured in transparent flat-bottom 96-well plates from Greiner Bio-One using a Tecan Spark 10M plate reader. All measurements with the main-target proteases (uPA and TMRPSS2) were performed as triplicates and with the off-target proteases (matriptase, factor Xa, tPA, thrombin) as duplicates. The substrates and the compounds were prepared as stock solutions in DMSO. Each well contained a total volume of 200 µL, consisting of 185 µL buffer, 5 µL inhibitor in DMSO or pure DMSO as negative control, 5 µL substrate in DMSO and 5 µL enzyme solution in buffer. Dilution series were prepared for the determination of the inhibition constants. The fluorescence signal and absorbance were measured every 30 s for 10 min at 25 or 37 °C with the corresponding excitation/emission (λex = 380 nm / λem = 460 nm) and absorbance (λabs = 405 nm) wavelengths, depending on the targeted protease. IC50 values for the reversible inhibitors were calculated with Graphpad Prism 9 by fitting the remaining enzymatic activity to the four parameter IC50 equation with Y [%] as the residual enzyme activity , Ymax as the maximum value of the dose response curve at inhibitor concentrations [I] = 0 µM, Ymin as the minimum value at high inhibitor concentrations and s as the hill coefficient.[1] The fluorescence progress curves and sigmoidal dose-response curve for inhibition of uPa by compound 38 is shown exemplary in Figure S2. […]
(§4) Due to the dependence of the IC50 value on the substrate affinity and concentration, the Ki values were calculated with the Cheng-Prusoff equation, using the final substrate concentration [S] and the Michaelis-Menten constant KM, (2) for appropriate comparison of the inhibitory activities to the other enzymes and inhibitors.[1]
(§5) KM values were determined by fitting to the Michaelis-Menten equation using Graphpad Prism 9 with v [ΔF/min] as the substrate hydrolysis rate, vmax as the maximum slope of the dose-response curve, and the substrate [S] concentration.[1] The different substrates were serially diluted in DMSO. The measurement was done in analogy to the determination of the inhibitory activity, but with 5 µL pure DMSO instead of inhibitor solution. […]
(§6) The following buffers and substrates were used for the respective assays: uPA (50 mM Tris HCl pH = 7.9, 150 mM […]
(§7) TMPRSS2 (25 mM Tris HCl pH = 8.0, 150 mM NaCl, 5 mM CaCl2, 0.001% TX-100, 100 µM Boc-Gln-Ala-Arg-AMC (KM: 68.63 ± 6.64 µM), 25 °C, 3 nM TMPRSS2)[3]; matriptase (50 mM Tris HCl pH = 8.0, 150 mM NaCl, 5 mM CaCl2, […]

[2] = target: T2, thrombin (Homo sapiens, UniProt P00734); assay: fluorometric enzyme inhibition assay, thrombin (Z-Gly-Gly-Arg-AMC); assay type: biochemical; conditions: quotient Ki thrombin / Ki TMPRSS2, from cited Ki values (ref 29)
T2 construct: purchased Bio-techne
Method: as §1, §2, §3, §4, §5, §6, §7

[3] = target: T3, factor Xa (Homo sapiens, UniProt P00742); assay: colorimetric enzyme inhibition assay, factor Xa (Z-D-Arg-Gly-Arg-pNA); assay type: biochemical; conditions: quotient Ki factor Xa / Ki TMPRSS2, from cited Ki values (ref 29)
T3 construct: purchased Bio-techne
T3 sequence (P00742 235-488 limits assumed): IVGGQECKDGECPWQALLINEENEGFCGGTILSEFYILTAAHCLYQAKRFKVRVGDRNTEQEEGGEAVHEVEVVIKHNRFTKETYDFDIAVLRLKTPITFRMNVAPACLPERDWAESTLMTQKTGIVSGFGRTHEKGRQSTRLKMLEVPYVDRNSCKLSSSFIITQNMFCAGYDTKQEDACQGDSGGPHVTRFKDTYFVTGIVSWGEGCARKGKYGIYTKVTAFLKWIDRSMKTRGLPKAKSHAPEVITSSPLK
T3 sequence (P00742 41-179 partner limits assumed): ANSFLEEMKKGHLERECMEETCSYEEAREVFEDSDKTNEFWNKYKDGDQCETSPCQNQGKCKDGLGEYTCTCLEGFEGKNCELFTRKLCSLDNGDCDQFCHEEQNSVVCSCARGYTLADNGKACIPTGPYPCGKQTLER
Method: as §1, §2, §3, §4, §5, §6, §7

[4] = target: T4, TMPRSS2 (Homo sapiens, UniProt O15393); parameters: method as in PMID 35804152; conditions: published inhibitor; cited from earlier work
T4 construct: purchased Cusabio
T4 sequence (O15393 whole entry): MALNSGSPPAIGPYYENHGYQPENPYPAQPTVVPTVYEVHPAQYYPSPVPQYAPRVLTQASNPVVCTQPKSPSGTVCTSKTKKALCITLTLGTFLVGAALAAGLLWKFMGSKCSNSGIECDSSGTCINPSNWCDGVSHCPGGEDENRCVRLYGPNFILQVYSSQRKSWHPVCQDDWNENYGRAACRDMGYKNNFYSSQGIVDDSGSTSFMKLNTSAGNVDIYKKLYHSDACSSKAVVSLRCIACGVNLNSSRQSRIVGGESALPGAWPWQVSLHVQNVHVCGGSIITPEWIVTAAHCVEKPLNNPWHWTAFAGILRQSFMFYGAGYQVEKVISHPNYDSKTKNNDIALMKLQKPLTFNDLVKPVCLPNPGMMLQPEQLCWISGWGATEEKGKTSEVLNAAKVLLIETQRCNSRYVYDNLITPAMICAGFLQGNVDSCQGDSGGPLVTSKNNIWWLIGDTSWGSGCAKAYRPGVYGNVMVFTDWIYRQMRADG

[5] = target: T1, matriptase; parameters: method as in PMID 35804152; conditions: published inhibitor; cited from earlier work
[6] = target: T2, thrombin; parameters: method as in PMID 35804152; conditions: published inhibitor; cited from earlier work
[7] = target: T3, factor Xa; parameters: method as in PMID 35804152; conditions: published inhibitor; cited from earlier work

Selectivity index [SI] Matriptase [1]: 2
Selectivity index [SI] Thrombin [2]: 418
Selectivity index [SI] Factor Xa [3]: 16
SMILES: CC(=O)N[C@@H](CC(N)=O)C(=O)N1CCC[C@H]1C(=O)N[C@@H](CCCNC(=N)N)C(=O)c1nc2ccccc2s1 [Ac-L-Asn-L-Pro-L-Arg-kbt]
Ki [4]: 2.5 nM
Ki [5]: 5.2 nM
Ki [6]: 1050 nM
Ki [7]: 41.1 nM
